Assays:
[1] = biological target: T1, human calcitonin receptor (CTR) (Homo sapiens, UniProt P30988); test: Calcitonin Receptor (CTR) cAMP Assay; assay type: cell-based; details: COS7-human CTR Clone #2 stable cell line, cAMP dynamic 2 kit, 30 min; read-out: Calcitonin Receptor cAMP Stimulation Activity: EC50
T1 construct: expressed in transfected cells; host or cells: COS-7 (COS7-human CTR Clone #2)
T1 sequence (P30988 25-474): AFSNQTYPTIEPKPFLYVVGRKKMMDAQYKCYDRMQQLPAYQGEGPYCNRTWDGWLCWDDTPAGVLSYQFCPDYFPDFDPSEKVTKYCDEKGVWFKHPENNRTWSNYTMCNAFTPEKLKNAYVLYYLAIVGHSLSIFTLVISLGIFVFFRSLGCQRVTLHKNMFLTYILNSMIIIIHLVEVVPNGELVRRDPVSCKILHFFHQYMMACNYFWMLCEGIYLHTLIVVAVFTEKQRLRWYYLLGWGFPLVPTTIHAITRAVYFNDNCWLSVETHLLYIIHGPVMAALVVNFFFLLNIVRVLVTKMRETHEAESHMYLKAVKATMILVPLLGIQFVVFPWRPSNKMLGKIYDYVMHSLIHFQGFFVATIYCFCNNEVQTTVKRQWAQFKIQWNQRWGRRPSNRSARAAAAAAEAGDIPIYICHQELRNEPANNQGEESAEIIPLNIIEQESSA
In short: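 COS-7 cells stably expressing human CTR (2000 cells/well) were incubated 30 min at 37 °C with 4-fold serially diluted compound in HBSS/20 mM HEPES/0.5 mM IBMX/0.1% casein. cAMP was detected by HTRF (665/615 nm) after 1 h at RT. % activity was normalised to vehicle and positive controls.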

[2] = biological target: T2, COS-7/AMY3 (human calcitonin receptor (CTR) and RAMP3) (Homo sapiens, UniProt O60896+P30988); test: Amylin Receptor cAMP Assay II; assay type: cell-based; details: values marked **: Amylin Receptor cAMP Assay II; COS-7/AMY3 cells, cAMP dynamic 2 kit, 30 min; read-out: Amylin Receptor cAMP Stimulation Activity: EC50
T2 construct: expressed in transfected cells; host or cells: COS-7
T2 sequence (O60896 24-148, one chain of several): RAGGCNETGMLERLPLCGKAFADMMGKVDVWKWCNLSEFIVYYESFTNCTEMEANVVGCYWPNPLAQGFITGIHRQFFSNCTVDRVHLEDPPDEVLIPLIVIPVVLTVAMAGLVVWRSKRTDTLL
In short: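 COS-7 cells stably co-expressing human CTR and RAMP3 (AMY3), 2000 cells/well in HBSS with 20 mM HEPES, 0.5 mM IBMX, 0.1% casein, stimulated with compound for 30 min at 37 °C. cAMP measured by HTRF (665/615 nm), activity normalized between vehicle and maximal control.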

| SMILES | EC50 [1] | EC50 [2] |
| --- | --- | --- |
| O=C1c2c(nc(CCc3ccc(F)cc3)c(-c3n[nH]c(=O)o3)c2-c2cc3ccnc(N[C@@H]4CCc5c4ccc(F)c5Cl)c3s2)[C@@H]2CCCN12 [Compound 168, 5-((S)-4-(7-(((R)-4-chloro-5-fluoro-2,3-dihydro-1H-inden-1-yl)amino)thieno[2,3-c]pyridin-2-yl)-2-(4-fluorophenethyl)-5-oxo-7,8,9,9a-tetrahydro-5H-pyrido[2,3-a]pyrrolizin-3-yl)-1,3,4-oxadiazol-2(3H)-one] | 0.341 nM | 15.3 nM |
| CC1(C)Oc2cc(-c3c4c(nc(CCc5ccc(F)cc5)c3-c3n[nH]c(=O)o3)[C@@H]3CCCN3C4=O)ccc2N(Cc2ccc(F)cn2)C1=O [Compound 186, (S)-7-(2-(4-fluorophenethyl)-5-oxo-3-(5-oxo-4,5-dihydro-1,3,4-oxadiazol-2-yl)-7,8,9,9a-tetrahydro-5H-pyrido[2,3-a]pyrrolizin-4-yl)-4-((5-fluoropyridin-2-yl)methyl)-2,2-dimethyl-2H-benzo[b][1,4]oxazin-3(4H)-one] | 0.682 nM | 37.2 nM |
| COc1cccc2c1CC[C@H]2Nc1nc(C)cc2cc(-c3c4c(nc(CCc5ccc(F)cc5)c3-c3n[nH]c(=O)o3)[C@@H]3CCCN3C4=O)sc12 [Compound 207, 5-((S)-2-(4-fluorophenethyl)-4-(7-(((R)-4-methoxy-2,3-dihydro-1H-inden-1-yl)amino)-5-methylthieno[2,3-c]pyridin-2-yl)-5-oxo-7,8,9,9a-tetrahydro-5H-pyrido[2,3-a]pyrrolizin-3-yl)-1,3,4-oxadiazol-2(3H)-one] | 0.309 nM | 11.3 nM |
| COc1cccc2c1CC[C@H]2Nc1cc(C(F)(F)F)cn2cc(-c3c4c(nc(CCc5ccc(F)cc5)c3-c3n[nH]c(=O)o3)[C@@H]3CCCN3C4=O)nc12 [Compound 216, 5-((S)-2-(4-fluorophenethyl)-4-(8-(((R)-4-methoxy-2,3-dihydro-1H-inden-1-yl)amino)-6-(trifluoromethyl)imidazo[1,2-a]pyridin-2-yl)-5-oxo-7,8,9,9a-tetrahydro-5H-pyrido[2,3-a]pyrrolizin-3-yl)-1,3,4-oxadiazol-2(3H)-one] | 152 nM | 1340 nM |
| COc1c(F)ccc2c1CC[C@H]2Nc1nc(C)cc2cc(-c3c4c(nc(CCc5ccc(F)cc5)c3-c3n[nH]c(=O)o3)C35CC(CN3C4=O)C5)sc12 [Compound 193, (R)-5-(4-(7-((5-fluoro-4-methoxy-2,3-dihydro-1H-inden-1-yl)amino)-5-methylthieno[2,3-c]pyridin-2-yl)-2-(4-fluorophenethyl)-5-oxo-8,9-dihydro-5H,7H-8,9a-methanopyrido[2,3-a]pyrrolizin-3-yl)-1,3,4-oxadiazol-2(3H)-one] | 0.00749 nM | 0.226 nM |
| COc1cccc2c1CC[C@H]2Nc1nccc2cc(-c3c4c(nc(CCc5ccc(F)cc5)c3-c3n[nH]c(=O)o3)C35CC3CCN5C4=O)sc12 (stereo partly drawn) [Compound 180, 5-(8-(4-fluorophenethyl)-6-(7-(((R)-4-methoxy-2,3-dihydro-1H-inden-1-yl)amino)thieno[2,3-c]pyridin-2-yl)-5-oxo-1,1a,2,3-tetrahydro-5H-cyclopropa[g]pyrido[2,3-a]pyrrolizin-7-yl)-1,3,4-oxadiazol-2(3H)-one] | 0.559 nM | 12.7 nM |
| O=c1cc(-c2c(CCC3CCOCC3)nc3c(c2-c2cc4ccnc(N[C@@H]5CCc6ncccc65)c4s2)S(=O)(=O)N2CCC[C@@H]32)o[nH]1 [Compound 198, 5-[(2S)-9-[7-[[(5R)-6,7-dihydro-5H-cyclopenta[b]pyridin-5-yl]amino]thieno[2,3-c]pyridin-2-yl]-7,7-dioxo-11-(2-tetrahydropyran-4-ylethyl)-7thia-6,12-diazatricyclo[6.4.0.02,6]dodeca-1(12),8,10-trien-10-yl]isoxazol-3-one] | 19.2 nM | 1000 nM |
| C[C@H](Nc1nccc2cc(-c3c4c(nc(CCc5ccc(F)cc5)c3-c3noc(=O)[nH]3)[C@@H]3CCCN3C4=O)sc12)c1ccc(F)c(F)c1 [Compound 141] | 88.8 nM | 711 nM |
| CC(C)C1CS(=O)(=O)c2c1nc(CCC1CCOCC1)c(-c1n[nH]c(=O)o1)c2-c1cnc2c(ccn2Cc2ccc(C#N)c(F)c2)c1 (stereo not shown) [Compound 157, 2-fluoro-4-((5-(3-isopropyl-1,1-dioxido-6-(5-oxo-4,5-dihydro-1,3,4-oxadiazol-2-yl)-5-(2-(tetrahydro-2H-pyran-4-yl)ethyl)-2,3-dihydrothieno[3,2-b]pyridin-7-yl)-1H-pyrrolo[2,3-b]pyridin-1-yl)methyl)benzonitrile] | 7.42 nM | 115 nM |
| O=C1c2c(nc(CCc3ccc(F)cc3)c(-c3n[nH]c(=O)o3)c2-c2cc3ccnc(N[C@@H]4CCOc5ccccc54)c3s2)[C@@H]2CCCN12 [Compound 170] | 1.19 nM | 33.1 nM |

Next, values leading:

| EC50 [1] | EC50 [2] | SMILES |
| --- | --- | --- |
| 0.165 nM | 1.79 nM | O=C1c2c(nc(CCc3ccc(F)cc3)c(-c3n[nH]c(=O)o3)c2-c2cc3ccnc(N[C@@H]4CCc5cc(Cl)ccc54)c3s2)C23CC(CN12)C3 [Compound 273, (R)-5-(4-(7-((5-chloro-2,3-dihydro-1H-inden-1-yl)amino)thieno[2,3-c]pyridin-2-yl)-2-(4-fluorophenethyl)-5-oxo-8,9-dihydro-5H,7H-8,9a-methanopyrido[2,3-a]pyrrolizin-3-yl)-1,3,4-oxadiazol-2(3H)-one] |
| 2.75 nM | 182 nM | O=C1c2c(nc(CCc3ccc(F)cc3)c(-c3n[nH]c(=O)o3)c2-c2cc3ccnc(N[C@@H]4CCc5cc(Cl)cnc54)c3s2)C23CC(CN12)C3 [Compound 266, (R)-5-(4-(7-((3-chloro-6,7-dihydro-5H-cyclopenta[b]pyridin-7-yl)amino)thieno[2,3-c]pyridin-2-yl)-2-(4-fluorophenethyl)-5-oxo-8,9-dihydro-5H,7H-8,9a-methanopyrido[2,3-a]pyrrolizin-3-yl)-1,3,4-oxadiazol-2(3H)-one] |
| 857 nM | 62800 nM | Cn1cc(Cc2nccc3cc(-c4c5c(nc(CCc6ccc(F)cc6)c4-c4n[nH]c(=O)o4)[C@@H]4CCCN4C5=O)sc23)c2ccccc21 [Compound 249, (S)-5-(2-(4-fluorophenethyl)-4-(7-((1-methyl-1H-indol-3-yl)methyl)thieno[2,3-c]pyridin-2-yl)-5-oxo-7,8,9,9a-tetrahydro-5H-pyrido[2,3-a]pyrrolizin-3-yl)-1,3,4-oxadiazol-2(3H)-one] |
| 1.83 nM | 48.1 nM | COc1cccc2c1CC[C@H]2Nc1nccc2cc(-c3c4c(nc(CCc5ccc(F)cc5)c3-c3n[nH]c(=O)o3)[C@H]3COCCN3C4=O)sc12 [Compound 234, (S)-2-(4-fluorophenethyl)-4-(7-(((R)-4-methoxy-2,3-dihydro-1H-inden-1-yl)amino)thieno[2,3-c]pyridin-2-yl)-3-(5-oxo-4,5-dihydro-1,3,4-oxadiazol-2-yl)-7,8,10,10a-tetrahydro-5H-pyrido[2′,3′:3,4]pyrrolo[2,1-c][1,4]oxazin-5-one] |
| 1.16 nM | 22.7 nM | COc1ccc(CCc2nc3c(c(-c4cc5ccnc(N[C@@H]6CCc7c(OC)cccc76)c5s4)c2-c2n[nH]c(=O)o2)C(=O)N2CCC[C@@H]32)cc1F [Compound 244, 5-((S)-2-(3-fluoro-4-methoxyphenethyl)-4-(7-(((R)-4-methoxy-2,3-dihydro-1H-inden-1-yl)amino)thieno[2,3-c]pyridin-2-yl)-5-oxo-7,8,9,9a-tetrahydro-5H-pyrido[2,3-a]pyrrolizin-3-yl)-1,3,4-oxadiazol-2(3H)-one] |
| 0.0602 nM | 1.57 nM | COc1c(F)ccc2c1CC[C@H]2Nc1nccc2cc(-c3c4c(nc(CCc5ccccc5F)c3-c3n[nH]c(=O)o3)C35CC(CN3C4=O)C5)sc12 [Compound 276, (R)-5-(4-(7-((5-fluoro-4-methoxy-2,3-dihydro-1H-inden-1-yl)amino)thieno[2,3-c]pyridin-2-yl)-2-(2-fluorophenethyl)-5-oxo-8,9-dihydro-5H,7H-8,9a-methanopyrido[2,3-a]pyrrolizin-3-yl)-1,3,4-oxadiazol-2(3H)-one] |
| 0.0659 nM | 0.707 nM | Cc1cc2cc(-c3c4c(nc(CCc5ccc(F)cc5)c3-c3n[nH]c(=O)o3)[C@@H]3COCCN3C4=O)sc2c(N[C@@H]2CCc3cc(F)c(F)cc32)n1 [Compound 254, (R)-4-(7-(((R)-5,6-difluoro-2,3-dihydro-1H-inden-1-yl)amino)-5-methylthieno[2,3-c]pyridin-2-yl)-2-(4-fluorophenethyl)-3-(5-oxo-4,5-dihydro-1,3,4-oxadiazol-2-yl)-7,8,10,10a-tetrahydro-5H-pyrido[2′,3′:3,4]pyrrolo[2,1-c][1,4]oxazin-5-one] |

— patent US12486269B2 (Aconcagua Bio, Inc., priority 2024, dated 2025)
